# Laboratory results published in patent US20100021519A1, “Compositions and Methods for Treating or Preventing Diseases of Body Passageways” (priority 2006, published 2010).
# Where two headings read alike, the source gives them in different places.
# Assays:
# liver and lung cancer = conditions: preliminary reports, cited from earlier work
# [1] = Pilot in situ intra-tracheal infusion of THX-polymer formulation in rats immediately after termination; assay type: in vivo, rat; conditions: for THX tissue level, trachea: in situ infusion over 30 mins, 8 mg/kg, 200 μl, tissue harvested after 2 hours
# Protocol: A pilot study of in situ intra-tracheal infusion was performed to estimate tracheal and lung tissue levels after in situ intra-tracheal infusion of THX-polymer formulation.
# Method: Two rats (immediately after termination) were intra-tracheally infused over 30 mins with a THX-polymer formulation. The dose was 8 mg/kg and volume was 200 μl. After infusion these were wrapped for 2 hours in a warm heating pad. Tracheo-bronchial and lung tissue were harvested after wiping the lumen area of the tracheo-bronchial lumen with a tissue and spatula (to take off any adsorbed drug) at the end of 2 hours. Samples were frozen at −80 C until processed and analyzed by LC-MS. Sample extraction was conducted at AraVasc Inc. The processed samples were analyzed at Alta Analytical laboratories by LC-MS.
# [2] = for THX level, plasma / THX tissue level, lung: rat; for THX level, plasma: intratracheal 3 × 4 mg/kg; for THX tissue level, lung: intratracheal THX-polymer formulation 3 × 4 mg/kg, LC-MS
# Method: A screening formulation of thalidomide (THX) and polymer was used for the studies and the rat was chosen a preclinical model.
# A pilot pharmacokinetic (PK) study was performed to estimate tracheo-bronchial and lung tissue levels after intra-tracheal application of THX-polymer formulation.
# Method: A 10 mg/ml THX-polymer formulation was delivered (to anesthetized rats) at a dose of 4 mg/Kg at a volume of 100 μl dosed 3 times in 4 rats at 30 min intervals. The animals were anesthetized while dosing. […] Blood, tracheo-bronchial and lung tissue was sampled at 20 and 40 min past the third dose. Samples were frozen until processed for LC-MS analysis. […] Only the plasma and lung tissue were analyzed by LC-MS.
# Method: A preliminary screening LCMS method was developed for quantitating THX in tissues and plasma. […] The equipment used was a SCIEX PE 3000.
# Tissue and Plasma Extraction: The tissue was ground (glass-glass homogenizer) and extracted with 70:30 0.1% formic acid in acetonitrile and 0.1% formic acid in water at a 1:3 ratio of tissue to solvent. Plasma is extracted with the same solvent as the tissue at a 1:2 ratio of plasma to solvent. The supernatant extract was subject to LCMS analysis.
# [3] = clinical trials in liver and lung cancer
# [4] = rats, intra-tracheal THX-polymer formulation, 12 mg/kg dose (100 μl dosed 3 times)
smiles,measurement,setting,value
"O=C1CCC(N2C(=O)c3ccccc3C2=O)C(=O)N1 (racemic) [THX, 2-(2,6-dioxo-3-piperidinyl)-1H-isoindole-1,3(2H)-dione]",Disease control rates,liver and lung cancer; [3],8%-57%
same,Response rates,liver and lung cancer; [3],4%-10%
same,Toxicity in clinical trials (in words),liver and lung cancer,associated with systemic toxicities
same,"THX tissue level, trachea",[1]; Rat 1,211.21 μg/100 mg
same,"THX tissue level, trachea",[1]; Rat 2,290.36 μg/100 mg
same,THX levels in tracheo-bronchial and lung tissue (in words),"[1]; rats, in situ intra-tracheal infusion (0.5 hr), 8 mg/kg dose",High levels
same,"THX level, plasma","[2]; 100 μl, 20 mins post 3rd dose, unit of the table head",0.19 ng/mL
same,"THX level, plasma","[2]; 100 μl, 40 mins post 3rd dose, unit of the table head",0.44 ng/mL
same,"THX level, plasma","[2]; 20 mins post 3rd dose, unit of the text",190 ng/mL
same,"THX level, plasma","[2]; 40 mins post 3rd dose, unit of the text",440 ng/mL
same,"THX tissue level, lung","[2]; 100 μl, 20 mins post 3rd dose",21.80 μg/100 mg
same,"THX tissue level, lung","[2]; 100 μl, 40 mins post 3rd dose",16.81 μg/100 mg
same,Distribution/diffusion into the lung tissue and vasculature (in words),"[2]; rats, intra-tracheal THX-polymer formulation, 12 mg/kg dose",good distribution/diffusion into the lung tissue and vasculature
same,THX levels in lung tissue (in words),[2]; [4],High levels
same,THX levels in plasma (in words),[2]; [4],low levels
